This passage reports Ki results from PMC6321117, “Sulfonamide Inhibition Studies of a New β-Carbonic Anhydrase from the Pathogenic Protozoan Entamoeba histolytica” (International Journal of Molecular Sciences, 2018).

Where two headings read alike, the source gives them in different places.

Experiment [1] deals with T1, EhiCA (β-carbonic anhydrase) (Entamoeba histolytica, UniProt C4LXK3).
T1 sequence (C4LXK3 1-188): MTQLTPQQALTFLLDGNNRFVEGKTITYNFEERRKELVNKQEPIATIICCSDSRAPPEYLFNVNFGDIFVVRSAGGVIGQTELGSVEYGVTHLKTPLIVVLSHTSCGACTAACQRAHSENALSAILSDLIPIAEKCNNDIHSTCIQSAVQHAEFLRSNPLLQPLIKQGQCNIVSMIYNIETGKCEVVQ
Nature of the experiment: biochemical. As to the method: An Sx.18Mv-R Applied Photophysics (Oxford, UK) stopped-flow instrument has been used to assay the catalytic activity of various CA isozymes for CO2 hydration reaction. […] The uncatalyzed rates were determined in the same manner and subtracted from the total observed rates. Stock solutions of inhibitors (0.1 mM) were prepared in distilled-deionized water, and dilutions up to 1 nM were done thereafter with the assay buffer. Enzyme and inhibitor solutions were pre-incubated together for 15 min before assay, to allow for the formation of the enzyme–inhibitor complex. The inhibition constants were obtained by non-linear least-squares methods using PRISM 3 and the Cheng–Prusoff equation, as reported earlier.

The next experiment addresses hCA I. Particulars: human recombinant isozyme, α class, stopped flow CO2 hydrase assay; cited from earlier work.

For `Nc1ccc(S(N)(=O)=O)cc1` [Compound 2], the Ki (in general, the equilibrium dissociation constant of an inhibitor or competing ligand from its target) in experiment [1] stood at 6.01 µM. Turning to `NS(=O)(=O)c1cccc(S(N)(=O)=O)c1` [Compound 3], the Ki at hCA I was 0.079 µM. As for `Cc1ccc(S(N)(=O)=O)cc1` [Compound 4], the Ki on hCA I was 78.5 µM. Molecule `NS(=O)(=O)c1ccc(C(=O)O)cc1` [Compound 18, 4-carboxy-benzenesulfonamide] gave a Ki in experiment [1] of 0.383 µM. Molecule `NS(=O)(=O)c1cc(Cl)c(Cl)c(S(N)(=O)=O)c1` [DCP, dichlorophenamide] gave a Ki in experiment [1] of 0.79 µM. As for `O=C1NS(=O)(=O)c2ccccc21` [SAC, saccharin], the Ki at hCA I was 18.5 µM. In experiment [1] (KI EhiCA, β class, stopped-flow CO2 hydrase assay, 3 different assays, errors 5–10%), `CC1(C)O[C@@H]2[C@@H](CO[C@@]3(COS(N)(=O)=O)OC(C)(C)O[C@@H]23)O1` [TPM, topiramate] returned a Ki of 3.1 µM.
